Laboratory results from ChEMBL document CHEMBL1201862, “PubChem BioAssay data set” (2004).
Active and inactive are the calls of the source.

Tests used:
[1] = biological target: Long-chain-fatty-acid--AMP ligase FadD28 (Mycobacterium tuberculosis, UniProt P9WQ59); assay: Fluorescence polarization aasay to screen for inhibitors that compete for the binding of FadD28 to a bisubstrate Measured in Biochemical System Using Plate Reader - 2147-01_Inhibitor_Dose_CherryPick_Activity.; format: functional, Mycobacterium tuberculosis H37Rv
Chain of Long-chain-fatty-acid--AMP ligase FadD28 (P9WQ59 whole entry): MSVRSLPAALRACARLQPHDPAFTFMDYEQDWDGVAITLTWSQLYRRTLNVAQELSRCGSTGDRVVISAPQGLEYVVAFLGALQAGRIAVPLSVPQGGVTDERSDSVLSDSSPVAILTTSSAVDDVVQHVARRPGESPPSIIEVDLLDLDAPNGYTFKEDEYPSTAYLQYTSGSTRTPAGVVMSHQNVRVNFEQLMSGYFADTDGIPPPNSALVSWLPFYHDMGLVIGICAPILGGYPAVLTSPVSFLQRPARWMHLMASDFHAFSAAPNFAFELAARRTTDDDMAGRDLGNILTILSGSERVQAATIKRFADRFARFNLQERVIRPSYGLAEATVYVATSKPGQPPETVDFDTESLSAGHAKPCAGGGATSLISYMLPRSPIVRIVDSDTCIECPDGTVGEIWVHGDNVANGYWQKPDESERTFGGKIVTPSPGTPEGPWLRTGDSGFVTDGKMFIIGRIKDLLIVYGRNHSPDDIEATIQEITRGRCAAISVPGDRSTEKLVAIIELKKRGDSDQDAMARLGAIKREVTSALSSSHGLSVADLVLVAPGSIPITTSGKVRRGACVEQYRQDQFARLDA

INS1 = assay: INS-1E survival protection against cytokine death – cell-based, luminescence, retest, dose response (AID 449756); format: functional; settings: Rattus norvegicus;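 also: cell death triggered by IL-1 beta plus TNF-alpha plus IFN-gamma mixture; protective hits raise ATP signal compared with cytokine alone wells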
[2] = biological target: T1, Methionyl-tRNA synthetase, putative (Trypanosoma brucei brucei, UniProt Q38C91); format: functional, Trypanosoma brucei brucei strain 927/4 GUTat10.1
T1 sequence (Q38C91 whole entry): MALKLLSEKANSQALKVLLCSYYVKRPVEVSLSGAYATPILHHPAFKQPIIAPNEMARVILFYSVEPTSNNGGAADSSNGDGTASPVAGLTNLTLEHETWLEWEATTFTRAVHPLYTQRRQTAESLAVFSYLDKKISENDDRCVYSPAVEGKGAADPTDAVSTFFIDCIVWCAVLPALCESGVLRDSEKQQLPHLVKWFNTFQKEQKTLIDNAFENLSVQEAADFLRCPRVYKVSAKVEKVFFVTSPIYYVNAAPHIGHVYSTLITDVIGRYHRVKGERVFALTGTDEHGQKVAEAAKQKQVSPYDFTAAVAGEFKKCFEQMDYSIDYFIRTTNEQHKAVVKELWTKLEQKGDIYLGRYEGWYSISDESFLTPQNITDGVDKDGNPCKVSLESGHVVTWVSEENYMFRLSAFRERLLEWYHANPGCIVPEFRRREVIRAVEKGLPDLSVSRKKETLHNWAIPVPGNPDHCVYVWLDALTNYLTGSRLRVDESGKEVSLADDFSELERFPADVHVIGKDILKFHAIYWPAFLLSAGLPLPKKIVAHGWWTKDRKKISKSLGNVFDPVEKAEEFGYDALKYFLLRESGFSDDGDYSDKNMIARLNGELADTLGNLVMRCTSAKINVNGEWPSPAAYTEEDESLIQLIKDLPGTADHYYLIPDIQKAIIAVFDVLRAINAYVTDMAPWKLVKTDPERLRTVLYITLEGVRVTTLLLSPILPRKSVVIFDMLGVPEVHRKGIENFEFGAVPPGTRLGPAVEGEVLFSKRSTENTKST

[3] = Counterscreen for inhibitors of Trypanosoma brucei methionyl tRNA synthetase (MetRS): Luminescence-based cell-based high throughput dose response assay to identify compounds that are cytotoxic to Jurkat human T lymphocyte cells.; format: functional
[4] = biological target: T1, Methionyl-tRNA synthetase, putative; format: functional, Trypanosoma brucei brucei strain 927/4 GUTat10.1; remark: listed apart in the source
[5] = biological target: T2, Heat shock factor protein 1 (Mus musculus, UniProt P38532); assay: decrease of HSF1-responsive luciferase luminescence – cell-based, NIH3T3, dose retest, confirmation (AID 2382); format: functional;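 also: NIH3T3 fibroblasts with HSF1-driven luciferase reporter stressed by proteasome inhibitor MG132; luminescence from HSF1-driven luciferase expression after 8 hours of MG132 stress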
T2 sequence (P38532 whole entry): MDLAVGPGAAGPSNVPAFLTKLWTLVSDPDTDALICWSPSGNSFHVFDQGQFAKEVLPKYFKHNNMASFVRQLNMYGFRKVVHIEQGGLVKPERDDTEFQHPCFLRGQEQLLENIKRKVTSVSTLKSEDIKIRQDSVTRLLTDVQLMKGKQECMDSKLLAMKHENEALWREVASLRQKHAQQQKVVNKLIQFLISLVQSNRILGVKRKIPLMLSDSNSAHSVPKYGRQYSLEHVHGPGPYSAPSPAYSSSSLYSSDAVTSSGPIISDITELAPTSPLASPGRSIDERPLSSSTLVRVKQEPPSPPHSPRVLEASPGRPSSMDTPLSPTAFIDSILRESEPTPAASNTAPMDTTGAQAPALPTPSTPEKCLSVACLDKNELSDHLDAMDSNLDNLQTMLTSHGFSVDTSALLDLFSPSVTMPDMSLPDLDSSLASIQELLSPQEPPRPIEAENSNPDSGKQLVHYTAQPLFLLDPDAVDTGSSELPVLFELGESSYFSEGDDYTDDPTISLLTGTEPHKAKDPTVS

[6] = biological target: Neurotensin receptor type 1 (Homo sapiens, UniProt P30989); format: functional;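 also: Image-based confirmatory dose-response assay measuring agonist activity at NTR1; NTR1-expressing U2OS osteosarcoma cells imaged for beta-arrestin GFP spot formation; agonist potency where compounds increase beta-arrestin recruitment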
Chain of Neurotensin receptor type 1 (P30989 whole entry): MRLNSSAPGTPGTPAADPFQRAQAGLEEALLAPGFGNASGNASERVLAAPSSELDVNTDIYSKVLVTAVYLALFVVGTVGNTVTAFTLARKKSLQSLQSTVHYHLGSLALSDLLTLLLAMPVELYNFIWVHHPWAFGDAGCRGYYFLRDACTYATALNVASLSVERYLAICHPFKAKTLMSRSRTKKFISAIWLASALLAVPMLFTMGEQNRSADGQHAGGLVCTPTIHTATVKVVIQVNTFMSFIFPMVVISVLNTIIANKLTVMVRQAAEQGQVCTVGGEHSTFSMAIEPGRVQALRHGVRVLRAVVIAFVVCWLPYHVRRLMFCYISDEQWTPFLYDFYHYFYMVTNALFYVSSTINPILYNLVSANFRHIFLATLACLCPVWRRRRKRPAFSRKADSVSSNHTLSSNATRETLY

[7] = biological target: T3, Replicative DNA helicase DnaB (Mycobacterium tuberculosis, UniProt P9WMR3); assay: DnaB intein splicing inhibitors, dose response, biochemical, cell-free fluorescence (AID 449749); format: functional
T3 sequence (P9WMR3 whole entry): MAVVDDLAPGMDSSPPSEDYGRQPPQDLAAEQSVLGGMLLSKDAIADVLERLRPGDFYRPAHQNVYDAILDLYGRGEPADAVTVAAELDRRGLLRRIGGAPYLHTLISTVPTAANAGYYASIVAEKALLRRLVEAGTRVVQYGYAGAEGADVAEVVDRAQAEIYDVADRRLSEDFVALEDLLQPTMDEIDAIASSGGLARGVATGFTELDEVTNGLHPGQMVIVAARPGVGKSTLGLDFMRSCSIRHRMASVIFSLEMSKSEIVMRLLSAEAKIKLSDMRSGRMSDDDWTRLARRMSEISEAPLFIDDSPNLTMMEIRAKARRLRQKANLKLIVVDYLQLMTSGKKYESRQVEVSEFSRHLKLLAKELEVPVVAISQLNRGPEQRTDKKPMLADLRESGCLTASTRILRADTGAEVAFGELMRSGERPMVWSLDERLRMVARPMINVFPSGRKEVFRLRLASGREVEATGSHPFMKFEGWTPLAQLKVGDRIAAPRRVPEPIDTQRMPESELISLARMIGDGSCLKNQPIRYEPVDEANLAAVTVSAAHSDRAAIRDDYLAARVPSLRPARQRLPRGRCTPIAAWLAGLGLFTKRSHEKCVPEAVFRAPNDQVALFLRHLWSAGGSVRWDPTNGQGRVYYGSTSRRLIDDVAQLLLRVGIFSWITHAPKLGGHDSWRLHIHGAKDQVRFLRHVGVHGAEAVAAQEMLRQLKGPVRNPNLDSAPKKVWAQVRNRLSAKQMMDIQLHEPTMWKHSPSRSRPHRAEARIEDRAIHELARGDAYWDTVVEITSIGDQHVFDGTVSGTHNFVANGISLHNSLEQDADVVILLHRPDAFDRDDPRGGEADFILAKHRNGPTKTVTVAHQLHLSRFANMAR

Protein RecA = biological target: T4, Protein RecA (Mycobacterium tuberculosis, UniProt P9WHJ3); assay: Fluorescence Cell-Free Homogeneous Dose Retest to Identify Inhibitors of RecA-Intein Splicing Activity. [Related pubchem assays (depositor defined):AID2097, AID2223, AID489010, AID492950]; format: functional
T4 sequence (P9WHJ3 whole entry): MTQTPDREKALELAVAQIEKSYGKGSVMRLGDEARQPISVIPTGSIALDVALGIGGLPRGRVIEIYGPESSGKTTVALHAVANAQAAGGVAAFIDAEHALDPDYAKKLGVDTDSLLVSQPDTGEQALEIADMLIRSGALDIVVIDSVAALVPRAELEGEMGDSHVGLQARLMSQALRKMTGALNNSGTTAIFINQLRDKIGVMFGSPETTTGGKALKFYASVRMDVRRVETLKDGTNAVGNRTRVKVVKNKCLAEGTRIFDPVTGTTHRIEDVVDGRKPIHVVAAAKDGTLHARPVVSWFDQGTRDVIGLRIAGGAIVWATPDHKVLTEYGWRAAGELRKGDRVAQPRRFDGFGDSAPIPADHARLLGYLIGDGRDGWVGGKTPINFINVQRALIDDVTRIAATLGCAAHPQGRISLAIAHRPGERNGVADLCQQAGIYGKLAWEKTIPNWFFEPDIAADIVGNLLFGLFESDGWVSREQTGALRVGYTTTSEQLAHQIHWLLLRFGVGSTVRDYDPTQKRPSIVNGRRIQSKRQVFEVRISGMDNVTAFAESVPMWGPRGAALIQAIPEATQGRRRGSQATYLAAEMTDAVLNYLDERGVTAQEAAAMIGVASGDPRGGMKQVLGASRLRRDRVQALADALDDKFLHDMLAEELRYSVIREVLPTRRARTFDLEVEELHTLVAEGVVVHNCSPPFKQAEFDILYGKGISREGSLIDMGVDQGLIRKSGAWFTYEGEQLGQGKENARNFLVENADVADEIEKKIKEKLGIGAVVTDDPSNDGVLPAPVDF

[8] = Fluorescence-based cell-based high throughput dose response assay for inhibitors of the interaction of nucleotide-binding oligomerization domain containing 2 (NOD2) and the receptor-interacting serine-threonine kinase 2 (RIPK2).; format: functional; settings: Homo sapiens
Beta Lactamase = Beta Lactamase (Pseudomonas aeruginosa, UniProt Q932Y6); assay: BLA reporter interference, concentration series – BLA reporter cells, FRET fluorescence, artefact control for NOD2-RIPK2 interaction inhibitor project, dose response (AID 651552); format: functional, cell-based
Chain of Beta Lactamase (Q932Y6 whole entry): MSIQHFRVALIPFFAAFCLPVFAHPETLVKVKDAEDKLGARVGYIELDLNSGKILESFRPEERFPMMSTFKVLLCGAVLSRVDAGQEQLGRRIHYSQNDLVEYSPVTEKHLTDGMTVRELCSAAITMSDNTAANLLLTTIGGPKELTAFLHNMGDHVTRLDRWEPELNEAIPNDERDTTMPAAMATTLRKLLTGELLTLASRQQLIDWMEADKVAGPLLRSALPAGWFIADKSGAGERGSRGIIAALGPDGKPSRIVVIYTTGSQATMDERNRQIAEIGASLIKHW

[9] = biological target: T5, Delta-type opioid receptor (Homo sapiens, UniProt P41143); assay: HTS Image-Based Screen for Antagonists of the DOR Receptor. [Related pubchem assays (depositor defined):AID1777, AID1785, AID1786, AID2133]; format: functional
T5 sequence (P41143 whole entry): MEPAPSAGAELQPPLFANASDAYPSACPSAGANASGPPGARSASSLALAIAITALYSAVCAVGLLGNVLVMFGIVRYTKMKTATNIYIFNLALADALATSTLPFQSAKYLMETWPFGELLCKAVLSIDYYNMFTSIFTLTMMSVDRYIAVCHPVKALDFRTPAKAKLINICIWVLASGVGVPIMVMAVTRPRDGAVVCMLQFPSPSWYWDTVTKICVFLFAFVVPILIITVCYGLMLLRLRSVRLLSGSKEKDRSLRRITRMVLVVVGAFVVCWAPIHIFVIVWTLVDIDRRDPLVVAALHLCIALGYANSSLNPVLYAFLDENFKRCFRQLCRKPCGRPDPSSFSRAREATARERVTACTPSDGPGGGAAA

Mu-type opioid receptor = Mu-type opioid receptor (Homo sapiens, UniProt P35372); assay: HTS Image-Based Screen for Agonists of the MOR Receptor. [Related pubchem assays (depositor defined):AID1777, AID1785, AID1786, AID2133]; format: functional;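 also: imaging of beta-arrestin GFP recruitment into spots after receptor activation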
Chain of Mu-type opioid receptor (P35372 whole entry): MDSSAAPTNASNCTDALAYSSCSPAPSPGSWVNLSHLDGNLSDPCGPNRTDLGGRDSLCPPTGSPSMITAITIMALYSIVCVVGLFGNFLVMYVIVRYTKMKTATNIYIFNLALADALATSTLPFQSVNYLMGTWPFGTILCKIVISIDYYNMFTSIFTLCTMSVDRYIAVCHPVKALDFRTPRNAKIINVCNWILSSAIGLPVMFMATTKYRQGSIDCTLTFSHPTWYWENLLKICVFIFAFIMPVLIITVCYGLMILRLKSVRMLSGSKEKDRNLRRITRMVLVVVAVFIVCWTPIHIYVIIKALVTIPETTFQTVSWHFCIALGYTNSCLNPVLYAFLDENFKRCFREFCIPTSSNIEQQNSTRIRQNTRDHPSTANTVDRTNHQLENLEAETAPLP

[10] = biological target: T5, Delta-type opioid receptor; assay: HTS Image-Based Screen for Agonists of the DOR Receptor. [Related pubchem assays (depositor defined):AID1777, AID1786, AID2133]; format: functional
[11] = biological target: T6, Kappa-type opioid receptor (Homo sapiens, UniProt P41145); format: functional
T6 sequence (P41145 whole entry): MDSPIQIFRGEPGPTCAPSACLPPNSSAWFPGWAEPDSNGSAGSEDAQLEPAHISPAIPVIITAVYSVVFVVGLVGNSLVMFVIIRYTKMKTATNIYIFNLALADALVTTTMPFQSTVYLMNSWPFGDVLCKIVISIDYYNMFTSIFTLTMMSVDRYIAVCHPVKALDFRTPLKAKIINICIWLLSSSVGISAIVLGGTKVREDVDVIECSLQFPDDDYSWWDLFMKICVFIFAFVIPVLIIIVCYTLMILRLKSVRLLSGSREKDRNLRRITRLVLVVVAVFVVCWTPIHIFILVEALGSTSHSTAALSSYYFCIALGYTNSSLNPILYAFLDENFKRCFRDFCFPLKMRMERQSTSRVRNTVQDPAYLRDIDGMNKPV

Beta-galactosidase = Beta-galactosidase (Escherichia coli, UniProt Q8VNN2); format: functional
Chain of Beta-galactosidase (Q8VNN2 whole entry): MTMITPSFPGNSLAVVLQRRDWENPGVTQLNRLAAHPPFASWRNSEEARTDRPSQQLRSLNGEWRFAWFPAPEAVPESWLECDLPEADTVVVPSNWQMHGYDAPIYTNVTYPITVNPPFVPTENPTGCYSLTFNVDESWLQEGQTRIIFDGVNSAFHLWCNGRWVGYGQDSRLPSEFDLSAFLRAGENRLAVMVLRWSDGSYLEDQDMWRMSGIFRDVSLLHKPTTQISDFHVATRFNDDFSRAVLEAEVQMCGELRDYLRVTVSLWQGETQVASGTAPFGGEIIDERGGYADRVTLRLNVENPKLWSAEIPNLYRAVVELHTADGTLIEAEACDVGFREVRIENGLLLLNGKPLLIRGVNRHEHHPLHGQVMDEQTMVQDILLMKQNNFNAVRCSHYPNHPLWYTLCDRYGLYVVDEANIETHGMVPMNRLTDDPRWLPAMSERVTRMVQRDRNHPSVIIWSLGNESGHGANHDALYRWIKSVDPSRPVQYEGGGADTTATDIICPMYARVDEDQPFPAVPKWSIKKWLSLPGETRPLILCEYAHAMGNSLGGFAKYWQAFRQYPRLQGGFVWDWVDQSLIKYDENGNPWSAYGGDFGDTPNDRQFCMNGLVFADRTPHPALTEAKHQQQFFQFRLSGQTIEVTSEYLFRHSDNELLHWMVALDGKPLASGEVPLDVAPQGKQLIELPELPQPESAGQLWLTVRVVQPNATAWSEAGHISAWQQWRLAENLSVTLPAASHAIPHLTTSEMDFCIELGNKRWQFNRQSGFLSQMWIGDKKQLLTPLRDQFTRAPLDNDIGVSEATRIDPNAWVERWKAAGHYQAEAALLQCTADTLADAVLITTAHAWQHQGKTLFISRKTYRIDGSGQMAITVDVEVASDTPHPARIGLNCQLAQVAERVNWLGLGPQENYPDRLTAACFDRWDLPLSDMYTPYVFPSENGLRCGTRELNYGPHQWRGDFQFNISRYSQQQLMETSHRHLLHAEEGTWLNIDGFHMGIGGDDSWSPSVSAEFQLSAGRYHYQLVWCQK

[12] = biological target: T6, Kappa-type opioid receptor; format: functional; remark: listed apart in the source
[13] = viability loss in HeLa cells – cytotoxicity control for MgcRacGAP inhibitor project, dose response (AID 624300); format: functional
[14] = biological target: T7, Rac GTPase-activating protein 1 (Homo sapiens, UniProt Q9H0H5); assay: blockers of MgcRacGAP-driven Rac1 GTP hydrolysis – biochemical, ADP Hunter fluorescence, primary and confirmatory, confirmation (AID 624330); format: functional
T7 sequence (Q9H0H5 whole entry): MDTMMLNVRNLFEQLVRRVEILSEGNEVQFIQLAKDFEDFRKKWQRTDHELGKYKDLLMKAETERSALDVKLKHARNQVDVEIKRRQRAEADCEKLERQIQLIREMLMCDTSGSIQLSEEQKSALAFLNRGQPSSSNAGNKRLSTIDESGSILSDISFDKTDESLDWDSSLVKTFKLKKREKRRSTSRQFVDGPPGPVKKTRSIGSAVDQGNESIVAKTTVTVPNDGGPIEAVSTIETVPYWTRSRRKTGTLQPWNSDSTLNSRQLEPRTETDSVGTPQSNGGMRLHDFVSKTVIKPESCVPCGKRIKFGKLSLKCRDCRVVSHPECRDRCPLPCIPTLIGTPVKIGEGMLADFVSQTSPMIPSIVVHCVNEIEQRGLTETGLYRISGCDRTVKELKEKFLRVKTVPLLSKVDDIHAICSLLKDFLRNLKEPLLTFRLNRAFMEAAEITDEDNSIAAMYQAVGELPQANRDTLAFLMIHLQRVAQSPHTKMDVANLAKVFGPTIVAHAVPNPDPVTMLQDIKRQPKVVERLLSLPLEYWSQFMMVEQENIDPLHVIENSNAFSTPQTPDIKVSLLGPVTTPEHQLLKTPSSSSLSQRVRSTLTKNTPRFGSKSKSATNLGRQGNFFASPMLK

[15] = Trypanosoma cruzi growth suppression in host cells – NIH3T3 host cells, beta-gal luminescence, confirmation (AID 2044); format: functional, cell-based;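 also: intracellular parasites grown in NIH/3T3 mouse fibroblasts as host cells; luminescent beta-galactosidase reporter signal from transgenic T. cruzi replicating inside host cells; inhibitors lower the luminescence signal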
[16] = NIH3T3 cell viability loss – ATP luminescence, mouse fibroblasts, counter-screen, dose response (AID 2010); format: functional, cell-based;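 also: cells exposed to compound for about 90 hours before reading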
cells = format: functional
[17] = biological target: Heat shock protein HSP 90-alpha (Homo sapiens, UniProt P07900); format: functional, organism-based
[18] = loss of viability in HepG2 cells – cell-based, CellTiter-Glo, cherry-picked, cytotoxicity control for Shn3 inhibitor project, dose response (AID 624134); format: functional
[19] = non-specific 3'UTR reporter inhibition in Clone20-Shn3RL – cell-based, Renilla luciferase, cherry-picked, counter-screen for Shn3 inhibitor project, dose response (AID 624133); format: functional
[20] = biological target: T8, Sentrin-specific protease 8 (Homo sapiens, UniProt Q96LD8); format: functional
T8 sequence (Q96LD8 whole entry): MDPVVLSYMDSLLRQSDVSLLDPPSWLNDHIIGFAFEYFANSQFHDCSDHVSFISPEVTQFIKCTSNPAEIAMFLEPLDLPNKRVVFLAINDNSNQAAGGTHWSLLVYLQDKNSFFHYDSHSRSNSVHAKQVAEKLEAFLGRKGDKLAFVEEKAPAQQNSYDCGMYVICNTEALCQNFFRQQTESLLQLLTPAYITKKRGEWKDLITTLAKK

[21] = biological target: T8, Sentrin-specific protease 8; format: functional; remark: listed apart in the source
Caspase-3 = biological target: T9, Caspase-3 (Homo sapiens, UniProt P42574); assay: Dose-response confirmation of uHTS inhibitor hits of Sentrin-Specific Protease 8 in a Caspase-3 Fluorescence assay.; format: functional
T9 sequence (P42574 whole entry): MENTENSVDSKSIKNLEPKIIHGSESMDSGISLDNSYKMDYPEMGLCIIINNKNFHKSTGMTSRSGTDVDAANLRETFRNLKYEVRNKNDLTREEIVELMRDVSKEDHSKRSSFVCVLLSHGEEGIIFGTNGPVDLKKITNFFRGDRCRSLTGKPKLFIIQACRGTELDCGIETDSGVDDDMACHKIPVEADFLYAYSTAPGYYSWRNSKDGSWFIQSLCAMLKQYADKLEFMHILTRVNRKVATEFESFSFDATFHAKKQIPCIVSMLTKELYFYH

[22] = mouse fibroblast viability loss – cell-based, cherry-pick samples, set 2, cytotoxicity control for T. cruzi growth inhibitor project, dose response (AID 651817); format: functional; settings: NIH3T3

## COc1cc([N+](=O)[O-])ccc1N=C(S)NNC(=O)c1ccc2c(c1)OCO2
[1]
  AC50: > 100 µM (inactive)

## O=C(NCc1nc2ccccc2[nH]1)C1=C[C@@H](C2CCCCC2)C[C@@H](OCc2ccc(CO)cc2)O1
INS1
  AC50: 13.1 µM (active)
[2]
  IC50: 6.42 µM (active)
[3]
  IC50: 38.9 µM (inactive)
[4]
  IC50: 2.85 µM (active)

## Cn1ccnc1Sc1cc(NCCCO)c([N+](=O)[O-])c2nonc12
[5]
  EC50: 11.8 µM (active)
[6]
  EC50: 13.2 µM (active)
[7]
  AC50: 8.37 µM (active)
Protein RecA
  EC50: 3.32 µM (active)
[8]
  IC50: 5.86 µM (active)
Beta Lactamase
  IC50: 18.2 µM (inactive)

## COc1cc(/C=C/c2sc3ccccc3[n+]2CCCS(=O)(=O)[O-])ccc1O
[9]
  IC50: > 32 µM (inactive)
Mu-type opioid receptor
  EC50: > 32 µM (inactive)
[10]
  EC50: > 32 µM (inactive)
[11]
  IC50: 19.1 µM (active)
Beta-galactosidase
  EC50: 14.1 µM (active)
[12]
  IC50: > 32 µM
[7]
  AC50: > 380 µM (inactive)
Protein RecA
  EC50: 16.2 µM (active)
[13]
  CC50: 100 µM (active)
[14]
  IC50: 20.5 µM (active)

## CC(=O)N1N=C(c2ccccc2)OC1c1ccc([N+](=O)[O-])s1 (stereo unspecified)
[15]
  EC50: 1.79 µM (active)
[16]
  EC50: 10.8 µM (active)
cells
  IC50: 43.3 µM (active)
[17]
  AC50: 8.37 µM (active)
[18]
  AC50: 39.3 µM (active)
[19]
  AC50: 14.3 µM (active)
[20]
  IC50: 6.39 µM (active)
[21]
  IC50: 6.49 µM (active)
Caspase-3
  IC50: 48.3 µM (active)

## C[C@H](CO)N1C[C@H](C)[C@H](CN(C)S(=O)(=O)c2ccccc2)Oc2c(NC(=O)c3nc4ccccc4s3)cccc2C1=O
[22]
  AC50: 22.6 µM (active)
